From ChEMBL document CHEMBL5233233, “Histone deacetylase 3 (HDAC3) inhibitors as anticancer agents: A review” (Eur J Med Chem, 2020)
One block for each compound: values may come before it.

Columns and labels:
Histone deacetylase 1 [1] = target: T1, Histone deacetylase 1 (Homo sapiens, UniProt Q13547); experiment: Inhibition of human recombinant HDAC1 using Fluor-de-Lys as substrate at 50 uM for 30 mins by fluorescence based assay
[2] = target: T2, Protein deacetylase HDAC6 (Homo sapiens, UniProt Q9UBN7); experiment: Inhibition of human recombinant HDAC6 using Fluor-de-Lys as substrate at 50 uM for 30 mins by fluorescence based assay
T2 sequence (Q9UBN7 whole entry): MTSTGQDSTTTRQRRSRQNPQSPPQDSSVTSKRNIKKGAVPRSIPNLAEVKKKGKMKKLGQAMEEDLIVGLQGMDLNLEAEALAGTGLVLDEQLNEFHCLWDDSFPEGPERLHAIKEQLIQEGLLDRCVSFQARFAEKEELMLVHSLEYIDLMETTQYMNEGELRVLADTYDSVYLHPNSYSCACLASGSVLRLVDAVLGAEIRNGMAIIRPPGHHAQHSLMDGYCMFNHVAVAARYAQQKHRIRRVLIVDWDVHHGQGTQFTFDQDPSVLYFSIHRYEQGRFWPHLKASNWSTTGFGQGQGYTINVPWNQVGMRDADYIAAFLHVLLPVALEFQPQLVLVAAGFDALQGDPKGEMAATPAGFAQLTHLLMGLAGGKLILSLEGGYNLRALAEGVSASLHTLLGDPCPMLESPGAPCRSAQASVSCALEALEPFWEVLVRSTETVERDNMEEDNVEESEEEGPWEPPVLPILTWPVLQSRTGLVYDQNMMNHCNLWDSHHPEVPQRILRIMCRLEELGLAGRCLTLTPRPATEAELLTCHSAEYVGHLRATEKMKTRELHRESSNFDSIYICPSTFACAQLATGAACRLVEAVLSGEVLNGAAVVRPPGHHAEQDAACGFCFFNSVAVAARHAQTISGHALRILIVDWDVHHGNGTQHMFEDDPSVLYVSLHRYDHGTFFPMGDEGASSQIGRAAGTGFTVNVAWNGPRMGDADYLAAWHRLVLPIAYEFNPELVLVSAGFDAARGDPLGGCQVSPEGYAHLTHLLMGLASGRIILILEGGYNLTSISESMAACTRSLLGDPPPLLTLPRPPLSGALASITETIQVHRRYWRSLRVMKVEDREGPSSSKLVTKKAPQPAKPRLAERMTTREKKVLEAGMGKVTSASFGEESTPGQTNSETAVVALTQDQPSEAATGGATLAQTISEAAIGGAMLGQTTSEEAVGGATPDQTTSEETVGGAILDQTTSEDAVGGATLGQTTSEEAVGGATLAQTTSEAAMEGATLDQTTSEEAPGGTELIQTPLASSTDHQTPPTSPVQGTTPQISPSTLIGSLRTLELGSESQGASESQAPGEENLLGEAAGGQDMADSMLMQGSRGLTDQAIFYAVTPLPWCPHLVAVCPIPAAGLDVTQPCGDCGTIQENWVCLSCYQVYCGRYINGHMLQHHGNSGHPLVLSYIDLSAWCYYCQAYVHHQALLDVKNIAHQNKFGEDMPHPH

[3] = target: T3, Polyamine deacetylase HDAC10 (Homo sapiens, UniProt Q969S8); experiment: Inhibition of human recombinant HDAC10 using Fluor-de-Lys as substrate at 50 uM for 30 mins by fluorescence based assay
T3 sequence (Q969S8 whole entry): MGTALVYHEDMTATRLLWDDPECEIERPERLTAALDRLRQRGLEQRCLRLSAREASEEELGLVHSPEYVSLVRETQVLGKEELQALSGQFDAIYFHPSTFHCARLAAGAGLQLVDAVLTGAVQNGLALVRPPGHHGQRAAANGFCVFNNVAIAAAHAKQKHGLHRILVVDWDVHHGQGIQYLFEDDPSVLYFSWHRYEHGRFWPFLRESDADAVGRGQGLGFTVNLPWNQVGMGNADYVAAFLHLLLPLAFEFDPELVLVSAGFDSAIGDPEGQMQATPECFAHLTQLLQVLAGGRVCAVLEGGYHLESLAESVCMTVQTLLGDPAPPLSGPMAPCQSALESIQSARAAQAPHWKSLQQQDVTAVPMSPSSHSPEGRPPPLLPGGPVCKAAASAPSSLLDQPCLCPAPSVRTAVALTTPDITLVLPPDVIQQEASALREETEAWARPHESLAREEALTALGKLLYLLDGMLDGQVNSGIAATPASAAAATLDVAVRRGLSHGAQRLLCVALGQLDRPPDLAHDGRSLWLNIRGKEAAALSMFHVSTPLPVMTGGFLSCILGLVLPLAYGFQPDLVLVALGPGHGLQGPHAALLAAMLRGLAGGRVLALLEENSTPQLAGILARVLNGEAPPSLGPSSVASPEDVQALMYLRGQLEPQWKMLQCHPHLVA

Histone deacetylase 2 [4] = target: T4, Histone deacetylase 2 (Homo sapiens, UniProt Q92769); experiment: Inhibition of human recombinant HDAC2 using Fluor-de-Lys as substrate at 50 uM for 30 mins by fluorescence based assay
T4 sequence (Q92769 whole entry): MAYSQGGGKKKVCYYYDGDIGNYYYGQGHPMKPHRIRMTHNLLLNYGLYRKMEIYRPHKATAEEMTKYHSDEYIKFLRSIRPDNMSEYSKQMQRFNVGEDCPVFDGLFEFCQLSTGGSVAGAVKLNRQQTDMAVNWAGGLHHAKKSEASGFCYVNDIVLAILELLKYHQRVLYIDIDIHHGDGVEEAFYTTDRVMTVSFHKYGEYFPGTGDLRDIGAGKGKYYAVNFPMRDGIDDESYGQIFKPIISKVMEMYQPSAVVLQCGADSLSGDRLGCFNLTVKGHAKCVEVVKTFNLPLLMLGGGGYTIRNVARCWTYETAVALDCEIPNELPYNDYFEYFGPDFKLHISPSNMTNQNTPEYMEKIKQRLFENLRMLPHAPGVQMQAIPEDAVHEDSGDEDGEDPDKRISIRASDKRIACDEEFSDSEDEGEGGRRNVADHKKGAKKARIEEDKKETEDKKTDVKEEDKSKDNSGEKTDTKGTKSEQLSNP

Histone deacetylase 3 [5] = target: T5, Histone deacetylase 3 (Homo sapiens, UniProt O15379); experiment: Inhibition of HDAC3 (unknown origin) at 10 uM
T5 sequence (O15379 whole entry): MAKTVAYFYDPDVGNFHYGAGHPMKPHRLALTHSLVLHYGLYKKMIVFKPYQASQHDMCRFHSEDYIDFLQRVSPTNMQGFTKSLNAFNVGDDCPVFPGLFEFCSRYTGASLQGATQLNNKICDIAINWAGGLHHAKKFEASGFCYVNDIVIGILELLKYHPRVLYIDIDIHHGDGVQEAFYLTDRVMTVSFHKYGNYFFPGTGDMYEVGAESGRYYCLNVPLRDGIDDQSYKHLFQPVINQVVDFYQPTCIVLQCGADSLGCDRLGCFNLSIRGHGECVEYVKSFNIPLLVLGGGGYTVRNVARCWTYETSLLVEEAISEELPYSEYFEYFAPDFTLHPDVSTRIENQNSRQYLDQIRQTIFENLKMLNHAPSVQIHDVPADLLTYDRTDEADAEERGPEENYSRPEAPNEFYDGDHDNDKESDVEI

Histone deacetylase 1 [6] = target: T1, Histone deacetylase 1; experiment: Inhibition of human HDAC1 by fluorescence based assay method
Histone deacetylase 3 [7] = target: T5, Histone deacetylase 3; experiment: Inhibition of HDAC3 (unknown origin) at 5uM
Histone deacetylase 1 [8] = target: T1, Histone deacetylase 1; experiment: Inhibition of human recombinant HDAC1 using fluorogenic HDAC substrate measured after 20 mins by fluorescence assay
Histone deacetylase 3 [9] = target: T5, Histone deacetylase 3; experiment: Inhibition of human HDAC3 using fluorogenic as substrate measured after 30 mins by fluorescence based analysis
PC-3 = experiment: Anticancer activity against human PC-3 cells assessed as reduction in cell viability; format: functional, cell-based
Histone deacetylase 2 [10] = target: T4, Histone deacetylase 2; experiment: Inhibition of human recombinant HDAC2 using fluorogenic HDAC substrate measured after 20 mins by fluorescence assay
Histone deacetylase 1 [11] = target: T1, Histone deacetylase 1; experiment: Inhibition of human recombinant HDAC1 at 50 uM measured after 24 hrs by fluorometric analysis
Histone deacetylase 3 [12] = target: T5, Histone deacetylase 3; experiment: Inhibition of recombinant HDAC3 (unknown origin) measured after 24 hrs by fluorometric analysis
Histone deacetylase 2 [13] = target: T4, Histone deacetylase 2; experiment: Inhibition of recombinant HDAC2 (unknown origin) at 50 uM measured after 24 hrs by fluorometric based analysis

T1 sequence (Q13547 whole entry): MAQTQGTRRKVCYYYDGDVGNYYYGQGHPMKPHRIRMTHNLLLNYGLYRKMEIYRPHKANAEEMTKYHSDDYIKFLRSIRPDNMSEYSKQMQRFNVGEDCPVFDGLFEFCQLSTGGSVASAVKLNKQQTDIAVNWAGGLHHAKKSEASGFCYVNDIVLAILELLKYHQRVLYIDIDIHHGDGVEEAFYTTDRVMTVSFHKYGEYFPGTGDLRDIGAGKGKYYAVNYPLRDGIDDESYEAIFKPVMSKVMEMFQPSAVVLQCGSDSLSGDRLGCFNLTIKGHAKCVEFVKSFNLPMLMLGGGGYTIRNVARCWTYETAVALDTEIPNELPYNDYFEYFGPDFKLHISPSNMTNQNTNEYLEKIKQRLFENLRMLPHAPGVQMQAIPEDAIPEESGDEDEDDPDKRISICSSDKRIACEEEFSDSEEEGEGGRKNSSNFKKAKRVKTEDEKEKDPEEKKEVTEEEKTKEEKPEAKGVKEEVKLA

IC50 (Histone deacetylase 1 [1]): 67.2 nM | IC50 [2]: 9.93 nM | IC50 [3]: 49.3 nM | IC50 (Histone deacetylase 2 [4]): 101 nM
SMILES: Nc1ccccc1NC(=O)CCCCCCC(=O)NO

IC50 (Histone deacetylase 3 [7]): 97 nM
SMILES: O=C(CCCCCCN1C=Cc2ccccc2C1)NO

IC50 (Histone deacetylase 1 [11]): 1200 nM | IC50 (Histone deacetylase 3 [12]): 80 nM | IC50 (Histone deacetylase 2 [13]): 1500 nM
SMILES: Nc1ccc(F)cc1NC(=O)c1cc2ccccc2o1

More lines, now with the values behind:

SMILES: COc1ccc(C(=O)N[C@@H](Cc2c[nH]c3ccccc23)C(=O)Nc2ccc(C(=O)Nc3ccc(-c4cccs4)cc3N)cc2)cc1
IC50 (Histone deacetylase 3 [5]): 62500 nM

SMILES: Nc1ccccc1NC(=O)c1ccc(CNc2nc(-c3ccccc3)c(-c3ccccc3)o2)cc1
IC50 (Histone deacetylase 1 [6]): 6 nM

SMILES: COc1ccccc1NC(=O)N[C@H](C(=O)Nc1ccc(C(=O)NO)cc1)c1ccccc1
IC50 (Histone deacetylase 1 [8]): 4.8 nM | IC50 (Histone deacetylase 3 [9]): 5.9 nM | IC50 (PC-3): 1510 nM | IC50 (Histone deacetylase 2 [10]): 19.5 nM
